Paper PMC6960228, “Ethoxysanguinarine, a Novel Direct Activator of AMP-Activated Protein Kinase, Induces Autophagy and Exhibits Therapeutic Potential in Breast Cancer Cells” (Frontiers in Pharmacology, 2020)

What was measured:
[1] = tested on: T47D; experiment: MTT cytotoxicity assay; format: cell-based; conditions: Homo sapiens, 24 h, means ± SD of quadruplicate determinations
Experimental: Cells were seeded into 96-well plate and pre-cultured for 24 h, then treated with Eth for 24. Cell cytotoxicity was determined by MTT assay. The absorbance was measured at 490 nm by automated microplated reader (BioTek Instruments, Inc., Winooski, VT, USA), and the cell death rate was calculated as followed: inhibition rate (%) = (average A490 of the control group − average A490 of the experimental group)/(average A490 of the control group − average A490 of the blank group) × 100%. Cell viability was estimated by trypan blue dye exclusion.

[2] = tested on: MCF-7 xenografted and MDA-MB-231 xenografted murine models; experiment: Xenograft studies; format: in vivo, nude mice
Experimental: Female nude immunodeficient mice (nu/nu) (weighing ~16 g, 5-week-old) were purchased from Hunan SJA Laboratory Animal Co., Ltd. (Changsha, China), and maintained under specific pathogen-free conditions. Mice were given free access to sterile water and to a standard diet, and maintained under controlled conditions of temperature (22–24°C), humidity (40–70%), and light (12 h light-dark cycles). The present study was approved by Animal Ethics Committee of Hubei University of Medicine. The mice were subcutaneously injected with human BC MDA-MB-231 cells (5 × 10^6 cells which were suspended in 100 μL DMEM) into the right flank of each mouse. Treatments started when tumors reached a palpable size (0.5 cm in diameter). Mice were randomly divided into the following two groups: control group (vehicle; 0.8% DMSO, 12% cremophor, and 8% ethanol in normal saline; n = 8) and Eth-treated group (intraperitoneal injection of […] Eth; n = 8). The mice were treated 5 times per week for a total of […]. Caliper measurements of the longest perpendicular tumor diameters were performed twice a week to estimate the tumor volume, using the following formula: 4π/3 × (width/2)^2 × (length/2), representing the three-dimensional volume of an ellipse. Animals were sacrificed when tumors reached 1.5 cm or if the mice appeared moribund to prevent unnecessary morbidity to the mice.
To determine the anti-tumor effect of Eth on BC in vivo, MCF-7 xenografted and MDA-MB-231 xenografted murine models were generated. Once the tumors grew to a measurable size, each group was administered with vehicle (MCF-7 = 8, MDA-MB-231 = 8) or Eth (MCF-7 = 8; MDA-MB-231 = 8) i.p. at 2 mg/kg four times a week for 4 weeks. The tumor-bearing mice were humanely killed when their tumors reached 1.5 cm in diameter or when paralysis or major compromise in their quality of life occurred. […]
(A–B): Murine models were treated with vehicle, Eth (2 mg/kg) and the tumor volumes were calculated twice a week. **P < 0.01. […] (H–I): The expressions of LC3-II, AMPKα, and pAMPKα in xenograft tumor tissues were analyzed by western blot. […]

[3] = tested on: LC3 redistribution to autophagosomes in BC cells; experiment: GFP-LC3 autophagy assay (confocal microscopy); format: cell-based, human; conditions: pQCXIP-GFP-LC3 transfected cells, Eth 24 h
Source text: The cells were transfected with pQCXIP-GFP-LC3 plasmid using the Lipofectamine 3000 (Invitrogen; Thermo Fisher Scientific, Inc.) according to the recommended protocol by the manufacturer and then fixed in 4% paraformaldehyde. The percentage of cells with fluorescent dots representing GFP-LC3 translocation was counted. For visualization of cell nucleus, DAPI was used. Sections were observed using an Olympus laser scanning confocal microscope with imaging software (Olympus Fluoview FV-1000, Tokyo, Japan).
Figure 2 Eth induces autophagy in BC cells. (A): MCF-7, MDA-MB-231, or MDA-MB-436 cells were treated with increasing concentrations of Eth for 24 h. Western blot was performed using antibodies indicated. GAPDH was used as the loading control. (B): MCF-7 (MDA-MB-231 or MDA-MB-436) cells were treated with 2.4 µM (2.0 µM or 2.0 µM) Eth for the indicated times, and cell lysates were subjected to western blot assay. (C): MCF-7, MDA-MB-231, or MDA-MB-436 cells transfected with pQCXIP-GFP-LC3 plasmid were treated with increasing concentrations of Eth for 24 h, and assessed by immunoﬂuorescence analyses. Scale bar = 20 µm. (D): MDA-MB-231 or MDA-MB-436 cells transfected with pQCXIP-GFP-LC3 plasmid were treated with Eth (2.0 µM) and/or 3-MA (1 mM) for 24 h, and assessed by immunoﬂuorescence analyses. Scale bar = 20 µm. […] (F): MCF-7, MDA-MB-231, or MDA-MB-436 cells were treated with Eth (3.5 µM, 3.0 µM, or 3.0 µM) and/or 3-MA (1 mM) for 24 h and analyzed by MTT assay. (G): MCF-7, MDA-MB-231, or MDA-MB-436 cells were treated with Eth (2.4 µM, 2.0 µM, or 2.0 µM) and/or 3-MA (1 mM) for 24 h, and western blot was performed using antibodies indicated. *P < 0.05.
Figure 3 Eth induces autophagy through the AMPK/mTORC1 signaling. […] (D): MDA-MB-231 or MDA-MB-436 cells transfected with pQCXIP-GFP-LC3 plasmid were treated with Eth (2.0 µM) and/or CC (25 µM) for 24 h, and assessed by immunoﬂuorescence analyses. […] (G): MDA-MB-231 or MDA-MB-436 cells transfected with pQCXIP-GFP-LC3 plasmid were treated with Eth (1.0 µM or 1.6 µM) and/or Met (10 mM) for 24 h, and assessed by immunoﬂuorescence analyses. […]

Compound: CCOC1c2c(ccc3c2OCO3)-c2ccc3cc4c(cc3c2N1C)OCO4 (centres unmarked) [Eth, Ethoxysanguinarine]
- IC50 [1]: 9.15 ± 1.83 µM
- tumor weight ([2]; i.p. 2 mg/kg four times a week for 4 weeks): significantly reduced the tumor weight
- tumor growth compared with vehicle control ([2]; i.p. 2 mg/kg four times a week for 4 weeks, P < 0.05): efficiently repressed tumor growth
- expression levels of pAMPK and LC-3II in tumor specimens ([2]; western blot of xenograft tumors): upregulated
- GFP-LC3 staining pattern [3]: speckled fluorescent staining pattern
